According to patent US8586369B2, “Ion channel-forming peptides” (The Regents of the University of California, priority 2007, dated 2013):
Several values for one entry are separate records, joined by “and”; a condition that tells them apart may be missing. Equal entries are not always repeated. Entries after “also recorded” stand apart in the source; their conditions may differ.

Assays:
[1] = test system: Alkaline Phosphatase
Description: Monitoring the enzymatic hydrolysis of glycolic acid-O-phosphate with Alkaline Phosphatase by NMR: Glycolic acid-O-phosphate (1.1 mg, 7.1 μmol) was added to a buffer containing 0.5 mL of 100 mM KCl, 140 mM Na2CO3 buffer in 0.5 mL of D2O at pD 9.4. […] (0.5 mg, 1 nmol) was added to the solution and ^31P-NMR spectra were taken at various time points to monitor the enzymatic hydrolysis of glycolic acid-O-phosphate to glycolic acid. ^31P-NMR (300 MHz, D2O): glycolic acid-O-phosphate: δ 3.33 ppm, free inorganic phosphate: 2.54 ppm using an internal 85% phosphoric acid standard (set to 0 ppm).

[2] = Single-channel conductance of homodimeric gA pores in planar lipid bilayers made from DiPhyPC (Example 1); format: biochemical; details: 20 mM KCl plus 10 mM KOH; for γ at pH 12: DiPhyPC bilayers, homodimers
[3] = Single-channel conductance in negatively charged planar bilayers (50% POPE, 50% DOPS); format: biochemical; details: 0.01 M KCl
From the text: The data acquisition boards for both amplifiers were set to a sampling frequency of 15 kHz.

[4] = Single-channel conductance of homodimeric gA pores in planar lipid bilayers made from DiPhyPC (Example 1); format: biochemical; details: for Single-channel conductance γ: HEPES pH 7.4, DiPhyPC bilayers, slope of I-V curves; for Single-channel conductance γ / γ at pH 7.4: homodimers; for γ at pH 7.4: DiPhyPC bilayers; for γ-ratio to gA-gA: pH 7.4, DiPhyPC
Description: Formation of planar lipid bilayers: We formed most planar lipid bilayers with the “folding technique.” We used a Teflon film (Eastern Scientific Inc, pore diameter 0.18-0.25 mm) was pretreated on each side with 2.5 μL of 5% hexadecane in pentane and air dried. This film was mounted using vacuum grease (Dow Corning, High vacuum grease) to a custom made Teflon chamber separating two buffer compartments each with a volume capacity of 4 mL. After adding 1 mL of electrolyte (0.01 M to 1.00 M KCl buffered with HEPES pH 7.4) to each compartment, lipids were spread from a solution in pentane onto the surface of the electrolyte solutions (specifically, 4-6 μL from 25 mg mL-l solution DiPhyPC or from 6.25 mg mL-l each of 50% DOPS and 50% POPE or from 25 mg mL-l DODAP mixed with 25 mg mL-l DiPhyPC in a 1:9 ratio. Three additional milliliters of electrolyte solution were added to each side of the chamber to raise the liquid levels above the aperture. We formed the bilayers from apposition of two monolayers of lipids using the method described by Montal et al. (Proc. Natl. Acad. Sci. U.S.A. 1972, 69, 3561-3566). Briefly, bilayers were obtained by consecutively raising the liquid level in each compartment until the pore was completely covered by electrolyte. If at this point the pore was not closed by a lipid bilayer, then the liquid level in one or both compartments was lowered below the pore level by aspirating electrolyte into a 3 mL syringe, followed by raising the electrolyte solution again.
Planar lipid bilayers were also made with the “painting technique”. We pretreated each side of a pore in a bilayer cup (Warner Instruments, Delrin perfusion cup, volume 1 mL, pore diameter 250 μm) with ˜2 μL of a 25 mg mL-l solution of DiPhyPC in hexane. After adding recording buffer (0.01 M KCl to 1.00 M KCl buffered with HEPES, pH=7.4) to both compartments of the bilayer setup, we “painted” a solution of 20 mg mL-l DiPhyPC in n-decane over the pore by using a paint brush with a fine tip. We followed the thinning of the decane droplet to form a planar bilayer by monitoring the capacitance of the bilayer. After verifying that bilayers were stable for several minutes (in the range of ±200 mV applied voltage) and that the capacitances were above 80-90 pF, gA was added (4-8 μL from 1 ng mL-l in ethanol), derivatives 1 or 2 (2-10 μL from 100 ng mL-l in ethanol), or derivative 3 (4-10 μL from 100 ng mL-l in ethanol) directly to the bilayer chambers.
Ion channel measurements: We performed single channel recordings in “voltage clamp mode” using Ag/AgCl electrodes (Warner Instruments) in each compartment of the bilayer chambers. Data acquisition and storage was carried out using custom software in combination with either an EPC-7 patch clamp amplifier from List Medical Electronic (set at a gain of 100 mV pA-1 and a filter cutoff frequency of 3 kHz) or a Geneclamp 500 amplifier from Axon Instruments (with a CV-5B 100GU headstage, set at a gain of 100 mV pA-1 and filter cutoff frequency of 1 kHz). We used the EPC-7 amplifier for most folded bilayers and the Geneclamp 500 amplifier for most painted bilayers. The data acquisition boards for both amplifiers were set to a sampling frequency of 15 kHz. All current traces shown in the figures were further filtered using a digital Gaussian low-pass filter with a cutoff frequency of 30 Hz. The current traces we used to generate all data that was recorded at applied potentials s 50 mV were filtered at 10 Hz.
We performed the analysis of the single channel current traces by computing histograms of the currents from the original current-time traces with ClampFit 9.2 software from Axon Instruments. From these histograms we extracted the main current values by fitting a Gaussian function to the peaks in the histograms. […] Single channel conductances reported in this paper always refer to the main conductance state (i.e. to the dominant peaks in the current histograms).

[5] = target: bovine carbonic anhydrase II (CA, EC 4.2.1.1) (Bos taurus, UniProt P00921); experiment: Detection of protein-ligand binding interactions using ion channel measurements; details: 12 pM structure 11, 50 μM CA, 140 mM KCl, 10 mM phosphate pH 8.0, 100 mV
Description: Benzenesulfonamides are well-known ligands for carbonic anhydrase II (CA, EC 4.2.1.1), a Zn^2+-containing protein.
Detection of protein-ligand binding interactions using ion channel measurements: About 1 μL (from a 100 ng mL^−1 solution in ethanol) of structure 11 (to afford a final concentration of 12 pM of structure 11) was added to each compartment of a bilayer setup containing as electrolyte 140 mM KCl and 10 mM phosphate buffer (pH 8.0). The conductance was recorded at 100 mV.

[6] = Single channel recordings of gA derivatives in planar lipid bilayers (Example 2); format: biochemical; details: applied potential 100 mV, 20 mM KCl, 0.2 mM HEPES pH 7.4
Description: Formation of Planar Lipid Bilayers: Planar lipid bilayers were formed by the “folding technique.” Briefly, a film (e.g., Teflon®, Eastern Scientific Inc, pore diameter 0.1-0.2 mm) that was pretreated on both sides of the pore with 2 μL of 5% (v/v) hexadecane in pentane. This film was mounted using vacuum grease (Dow Corning, High vacuum grease) to a custom-made Teflon chamber separating two buffer compartments each with a volume capacity of 4 mL. After addition of 1 mL of electrolyte (20 mM KCl buffered with 0.2 mM HEPES pH 7.4 or 140 mM KCl buffered with 10 mM phosphate pH 8.0) to each compartment, lipids were spread at the air-water interface of the electrolyte solution in both compartments. Three additional milliliters of the same electrolyte solution were added to each compartment to raise the liquid level above the aperture in the Teflon film. The bilayers were formed on the pore of the Teflon film by aspirating the electrolyte solution into a 3 mL syringe, followed by dispensing the electrolyte solution back into each compartment.
Ion Channel Measurements: Single channel recordings in “voltage clamp mode” were performed using Ag/AgCl pellet electrodes (Warner Instruments) in each compartment of the bilayer setup. Data acquisition and storage was carried out using custom software in combination with an EPC-7 patch clamp amplifier from Heka (set at a gain of 10 mV pA^−1 and a filter cutoff frequency of 3 kHz). The data acquisition board for the amplifier was set to a sampling frequency of 15 kHz. All current traces shown in the figures were further filtered using a digital Gaussian low-pass filter with a cutoff frequency of 4 Hz.
The analysis of single channel current traces was performed by computing histograms of the currents from the original current versus time traces with ClampFit 9.2 software from Axon Instruments. From these histograms, main current values were extracted by fitting a Gaussian function to the peaks in the histograms. […]

Sequence of bovine carbonic anhydrase II (CA, EC 4.2.1.1) (P00921 whole entry): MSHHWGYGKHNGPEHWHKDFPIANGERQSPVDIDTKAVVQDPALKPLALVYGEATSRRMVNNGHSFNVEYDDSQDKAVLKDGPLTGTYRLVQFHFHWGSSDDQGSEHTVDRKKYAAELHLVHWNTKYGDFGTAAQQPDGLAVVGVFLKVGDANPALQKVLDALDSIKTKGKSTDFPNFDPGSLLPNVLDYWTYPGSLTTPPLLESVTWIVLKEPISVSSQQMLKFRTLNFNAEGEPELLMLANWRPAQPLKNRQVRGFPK

Compound: O=C(O)COP(=O)(O)O [glycolic acid-O-phosphate]
- time after which the enzymatic hydrolysis was completed ([1]; 7.1 μmol substrate, 1 nmol enzyme, 100 mM KCl, 140 mM Na2CO3, pD 9.4): 50 min
- hydrolysis by AP ([1]; 31P-NMR spectroscopy): hydrolyzed by AP

Compound: Gramicidin A [gA, reference compound]
- γ at pH 12 [2]: 7.8 ± 0.2 pS
- Single-channel conductance γ in negatively charged bilayers ([3]; 0.1 mM HEPES pH 7.4, listed as gA-gA): 26.9±0.2 pS and 27 pS
- Single-channel conductance γ ([4]; 0.01 M KCl): 2.7 ± 0.5 pS
- γ at pH 7.4 ([4]; 20 mM KCl): 4.5 ± 0.1 pS
- Single-channel conductance γ ([4]; 0.10 M KCl): 10.3 ± 0.1 pS
- Single-channel conductance γ ([4]; 1.00 M KCl, listed as gA-gA): 20 pS and 20.0 ± 0.2 pS

Compound: gA-triazole-benzenesulfonamide [structure 11]
- effect of CA on ion channel activity [5]: suppression of ion channel activity; also recorded: reduction of ion channel activity
- effect of CA on ion channel activity ([5]; listed as gA-sulfonamide 11): reduces the observed transmembrane ion flux

Compound: gramicidamine
- conductance compared with gA-gA at pH 12 ([2]; DiPhyPC): indistinguishable
- γ at pH 12 [2]: 7.7 ± 0.9 pS
- ion channel activity in planar lipid bilayers [6]: retained well-defined ion channel activity
- conductance compared with gA-gA at pH 7.4 ([4]; 20 mM KCl, DiPhyPC): significantly less
- γ at pH 7.4 ([4]; 20 mM KCl): 3.8 ± 0.2 pS

Compound: gramicidyl taurinyl succinate [compound 1]
- Single-channel conductance γ in negatively charged bilayers ([3]; 0.1 mM HEPES pH 7.4): 26.8±0.9 pS
- Single-channel conductance γ ([4]; 0.01 M KCl): 3.5 ± 0.3 pS
- γ-ratio to gA-gA ([4]; 0.01 M KCl): about 1.3
- γ-ratio to gA-gA ([4]; 0.01 M KCl, listed as 1-1): 1.3
- Single-channel conductance γ ([4]; 0.10 M KCl): 11.0 ± 0.4 pS
- γ-ratio to gA-gA ([4]; 0.10 M KCl): 1.1
- Single-channel conductance γ ([4]; 1.00 M KCl): 19.5 ± 0.4 pS
- γ-ratio to gA-gA ([4]; 1.00 M KCl): 1.0
- difference in single channel conductance compared to gA ([4]; approximately 0.10 M KCl): 7%
- difference in single channel conductance compared to gA ([4]; approximately 1.00 M KCl): 3%
